# Key:
# red potatoes [1] = test: wounding combined with precursor exposure: N-trans-feruloyltyramine production in sliced red potatoes; set-up: species or system Solanum tuberosum; conditions: sliced red potatoes dipped in 400 μM tyramine or citric acid (pH ~4); for N-trans-feruloyltyramine production: 4 days at room temperature, water control
# Procedure: Red potatoes were sliced (i.e., and boiled in water for 6 minutes or dipped into abiotic […]) aqueous solutions of 400 μM tyramine or citric acid (pH ˜4).
# For this analysis, red potatoes were sliced to a standard thickness (¼ inch; two potatoes/time point). Subsequently, the potato slices were either boiled in water for 6 minutes, or dipped into aqueous solutions of 400 μM tyramine (as precursor) or citric acid (pH ˜4; as a preservative), or water (control). The potato slices were loosely covered to allow for air flow and incubated for 4 days at room temperature.
# red potatoes [2] = test: wounding combined with THT enzyme elicitors: N-trans-feruloyltyramine production in sliced red potatoes; set-up: species or system Solanum tuberosum; conditions: sliced red potatoes dipped in 1 mg/ml laminaran, 10 mg/ml inactivated cordy-gen fungi or 10 mg/ml live endomycorrhizal fungi; 4 or 8 days at room temperature; water control
# Procedure: Red potatoes were sliced (i.e., wounded) and dipped into aqueous solutions of 10 mg/ml live endomycorrhizal fungi, 10 mg/ml inactivated cordy-gen fungi, or 1 mg/ml laminaran (polysaccharide from brown algae).
# For this analysis, red potatoes were sliced to a standard thickness. Subsequently, the potato slices were dipped into solutions of 10 mg/ml live endomycorrhizal fungi, 10 mg/ml inactivated cordy-gen fungi (from Mycopia), 1 mg/ml laminaran (polysaccharide from brown algae) or water (control) The potato slices were loosely covered to allow for air flow and incubated for 4 or 8 days at room temperature.
# Solanum tuberosum = test: wounding response of potato tubers (N-trans-feruloyltyramine production); conditions: wounded potatoes
# Procedure: Thus, it was determined whether elevated levels tyramine containing hydroxycinnamic acid amides could be generated in situ by subjecting a plant to an abiotic stress, e.g., wounding. In particular, yellow tubers of Solanum tuberosum were wounded by wounding and production of N-trans-feruloyltyramine in the tuber was assessed 1, 5 and 9 days after wounding.
Molecule,browning of the wounded potato slices (red potatoes [1]),N-trans-feruloyltyramine production (red potatoes [1]),production of N-trans-feruloyltyramine in response to wounding (red potatoes [2]),effect on the wounding response (Solanum tuberosum)
O=C(O)CC(O)(CC(=O)O)C(=O)O [citric acid],inhibited the browning pathway,little effect,–,–
laminaran,–,–,substantially enhanced,–
NCCc1ccc(O)cc1 [tyramine],further increased browning,could enhance,–,enhanced the wounding response
